From patent US20210128685A1, “PEDF-DERIVED PEPTIDES FOR PROMOTING MEIBOMIAN GLAND REGENERATION AND USES THEREOF” (BRIM Biotechnology, Inc., priority 2018, published 2021)

Experiments:
[1] = Alanine scanning and variants of the 29-mer (activities)
limbus stem cells = settings: rabbit; cited from earlier work
[2] = tested on: myogenic stem cells and C2C12 myoblasts; settings: cited from earlier work
[3] = Measurement of tear volume (phenol red thread tear test); type: in vivo, C57BL/6 mice; settings: old mice, weekly subconjunctival injection up to 4 weeks; weeks 1, 2, 3, 4 and 8
Method: (§1) Twelve to fifteen (12-15) months old C57BL/6 mice and 4-8 months old C57BL/6 mice were used. These mice were kept in standard pathogen-free environment at 24° C.±1° C., relatively humidity 60%±10%. All procedures were approved by the Mackay Memorial Hospital Review Board for animal investigation and were conducted in accordance with the ARVO statement for the Use of Animals in Ophthalmic and Vision Research. Mice were anesthetized by an intraperitoneal injection of a mixture of zoletil (6 mg/kg) and xylazine (3 mg/kg). One drop of 0.5% proparacaine hydrochloride (Alcaine; Alcon, Fort Worth, Tex., USA) was given before any ocular procedure.
(§2) The 29-mer was reconstituted in DMSO to a final concentration 100 μM. A separated dose of 10 μl of 29-mer (100 μM) mixed with 90 μl of phosphate-buffered saline (PBS) was injected into the upper and lower conjunctival fornix. 10 μl of DMSO mixed with 90 μl of PBS served as a control. […]
The amount of tears was measured with the phenol red thread tear test using ZONE-QUICK cotton threads (Yokota, Tokyo, Japan).^19,20 After general anesthesia, the lower eyelid was pulled down slightly, and a 1 mm portion of the thread was placed on the palpebral conjunctiva at the point ⅓ of the distance from the lateral canthus. […] The red portion of the thread is measured in millimeters.

[4] = Tear film break-up time (TBUT); type: in vivo, C57BL/6 mice; settings: old mice, weekly subconjunctival injection up to 4 weeks; week 1 to week 4, difference significant up to 8 weeks
Method: as §1, §2
To avoid the reduced lipids secretion resulting from no eye blinking under long-term anesthesia, Tear break-up time (TBUT)^19,20 was performed immediately after mice were anesthetized. […] After three compulsory blinks, TBUT was recorded in […] under a slit-lamp with a blue-free barrier filter. […]

Meibomian gland = assay: Eyelid whole mount Oil Red O (ORO) staining, MG size; type: in vivo, C57BL/6 mice; settings: old mice, weekly subconjunctival injection, at one month
Method: as §1, §2
At one month, upper eyelids were subjected to whole mount Oil Red O (ORO) staining. The size of MG tissue in whole mount was quantified using the color range selection and histogram tool with a computer-assisted image analyzer (Adobe Photoshop 7.0) and was calculated in Pixels. […]

acinar progenitor cells = assay: 5-Bromo-2'-deoxyuridine (BrdU) incorporation assay in upper eyelids after subconjunctival injection; type: in vivo, C57BL/6 mice; settings: for BrdU-positive cells per acinus: 24 hours after subconjunctival injection; for BrdU-positive cells in acinar base (cell proliferation): day 5 after single subconjunctival injection
Method: as §1
(§3) The 29-mer was reconstituted in DMSO to a final concentration 100 μM. A separated dose of 10 μl of 29-mer (100 μM) mixed with 90 μl of phosphate-buffered saline (PBS) was injected into the upper and lower conjunctival fornix. 10 μl of DMSO mixed with 90 μl of PBS served as a control. To evaluate the effect of 29-mer on tear film break-up time (TBUT) and tear secretion of old mice, subconjunctival injection of 29-mer was introduced weekly till one month and then followed up for two months.
After subconjunctival injection of 29-mer or DMSO, 5-Bromo-2′deoxyuridine (BrdU) 0.1 mg/g of body weight was injected intraperitoneally. The upper eyelids were harvested at 24 hours to evaluate the proliferation of acinar progenitor cells. To study the mitosis of cells, mice were administered by intraperitoneal injections of BrdU daily for 3 days, and the upper eyelids were harvested at day 5. Before performing immunohistochemistry of BrdU, slides were treated with 1 N HCL at 95° C. for 20 minutes.
Immunohistochemistry (IHC) was performed as previously described and modified.^22 Formalin-fixed, paraffin-embedded, mice specimens were deparaffinized in xylene and rehydrated in a graded series of ethanol concentrations. Slides were blocked with 10% goat serum for 60 minutes and then incubated with primary antibody against BrdU (1:800 dilution), PEDF (1:50), or p63 (1:200) overnight at 4° C. The slides were subsequently incubated with the appropriate peroxidase-labeled goat immunoglobulin (1:500 dilution; Chemicon, Temecula, Calif.) for 20 minutes and then incubated with chromogen substrate (3,3-diaminobenzidine) for 2 minutes before counterstaining with hematoxylin. Quantification was estimated based on high quality images captured using a Pannoramic digital slide scanners (3Dhistech Ltd. Budapest, Hungary).

[5] = tested on: acinar progenitor cells (p63-expressing cells); assay: Immunohistochemistry of stem cell marker p63 in upper eyelids 5 days after single treatment; type: in vivo, C57BL/6 mice; settings: aging (old) mice
Method: as §1, §2
Immunohistochemistry (IHC) was performed as previously described and modified.^22 Formalin-fixed, paraffin-embedded, mice specimens were deparaffinized in xylene and rehydrated in a graded series of ethanol concentrations. […] Quantification was estimated based on high quality images captured using a Pannoramic digital slide scanners (3Dhistech Ltd. Budapest, Hungary).

meibocytes = assay: Oil Red O staining of eyelid cryosections for lipids; type: in vivo, C57BL/6 mice; settings: old mice, versus DMSO
Method: as §1, §3
Eyelid tissues were embedded in OCT and sectioned at 8 μm of thickness. Frozen sections were placed in 60% 2-propanol for 1 minute, stained with filtered ORO solution for 15 minutes, rinsed with PBS and counterstained with hematoxylin.^4

## SLGAEHRTESVIHRALYYDLITNPDIHST (listed as Mus musculus) [mo-29mer, mouse variant of the 29-mer]
[1]
  activities of 29-mer variants: active

## 44-mer: 44-mer motif of PEDF, amino acid positions Val78-Thr121 (VLLSPLSVATALSALSLGAEQRTESIIHRALYYDLISSPDIHGT; UniProt P36955 78-121, looked up, fragment)
Limbus stem cells
  stem cells proliferation and regeneration in the limbus: induce stem cells proliferation and regeneration

## SLGAEQRTESIIHRALYYDLISSPDIHGT (listed as Homo sapiens) [29-mer, PEDF-derived short peptide, human PEDF residues 93-121 (Ser93-Thr121)]
[2]
  proliferation of myogenic stem cells and C2C12 myoblasts: induce proliferation
[3]
  Tear secretion test versus control: invariant
[4]
  TBUT versus control: significantly longer
Meibomian gland
  MG acinar size, whole mount ORO, upper eyelids: 2347530±34986.4 pixels/eyelid
Acinar progenitor cells; old mice
  BrdU-positive cells per acinus: 1.67±0.58 cells/per acinus
  BrdU-positive cells in acinar base (cell proliferation): 4.29±1.19
Acinar progenitor cells; young mice
  BrdU-positive cells per acinus: 2.35±0.73 cells/per acinus
  BrdU-positive cells in acinar base (cell proliferation): 6.70±1.35
[5]
  number of p63-expressing cells per acinus: 10.98±2.75
meibocytes
  ORO staining within the cytoplasm of differentiating meibocytes, cross sections: more overall ORO staining

## SLGAEHRTESVIHR (listed as Mus musculus) [mo-14mer, mouse variant of the 14-mer]
[1]
  activities of 29-mer variants: active
